Target: Coagulation factor X (Homo sapiens, UniProt P00742)
Assay: Binding affinity to FXa (unknown origin) assessed as inhibition constant

Sequence of Coagulation factor X (P00742 41-179 limits assumed): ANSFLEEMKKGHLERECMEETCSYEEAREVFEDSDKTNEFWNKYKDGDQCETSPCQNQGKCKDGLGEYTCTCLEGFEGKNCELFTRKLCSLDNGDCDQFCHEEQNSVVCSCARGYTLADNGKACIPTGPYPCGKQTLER
Sequence of Coagulation factor X (P00742 235-488 limits assumed): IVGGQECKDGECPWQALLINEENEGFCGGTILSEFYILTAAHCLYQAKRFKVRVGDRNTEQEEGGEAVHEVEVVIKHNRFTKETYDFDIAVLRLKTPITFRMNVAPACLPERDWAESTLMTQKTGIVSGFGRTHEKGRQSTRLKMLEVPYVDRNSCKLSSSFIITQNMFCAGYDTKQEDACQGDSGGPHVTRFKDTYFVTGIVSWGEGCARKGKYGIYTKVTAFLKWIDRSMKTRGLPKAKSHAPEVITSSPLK

Compared with N=C(N)c1ccc(C[C@@H](NC(=O)NC23CC4CC(CC(C4)C2)C3)C(=O)NCCc2ccccc2)cc1, NCc1cccc(-n2nc(C(F)(F)F)cc2C(=O)Nc2ccc(-c3ccccc3S(N)(=O)=O)cc2F)c1 is 27-fold lower in Ki: 25 nM for the first, 0.91 nM for the second. The second binds more tightly here.

Compound CC(C)N1CCC(NS(=O)(=O)CCNC(=O)c2ccc(Cl)s2)CC1 has a Ki of 2 nM.

— ChEMBL document CHEMBL5257029, “Contemporary developments in the discovery of selective factor Xa inhibitors: A review” (Eur J Med Chem, 2016)
